Reference: patent US6737383B1, “Herbicidal oxadiazolidines” (priority 1999, dated 2004)

What was measured:
bedstraw = assay: Test B pre/postemergence bedstraw; format: in vivo, Galium aparine
Method in brief: (§1)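 Response is a visual 0-to-10 score relative to untreated plants, where 0 means no effect and 10 means complete control, taken twelve to sixteen days after application. Treatments went onto soil at planting and onto foliage of 1- to 4-leaf plants, using a surfactant-containing non-phytotoxic solvent.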

blackgrass = assay: Test B pre/postemergence blackgrass; format: in vivo, Alopecurus myosuroides
Method in brief: as §1

surinam grass = assay: Test B pre/postemergence surinam grass; format: in vivo, Brachiaria decumbens
Method in brief: as §1

cocklebur = assay: Test B pre/postemergence cocklebur; format: in vivo, Xanthium strumarium
Method in brief: as §1

corn = assay: Test B pre/postemergence corn; format: in vivo, Zea mays
Method in brief: as §1

crabgrass = assay: Test B pre/postemergence crabgrass; format: in vivo, Digitaria sanguinalis
Method in brief: as §1

giant foxtail = assay: Test B pre/postemergence giant foxtail; format: in vivo, Setaria faberii
Method in brief: as §1

morningglory = assay: Test B pre/postemergence morningglory; format: in vivo, Ipomoea hederacea
Method in brief: as §1

pigweed = assay: Test B pre/postemergence pigweed; format: in vivo, Amaranthus retroflexus
Method in brief: as §1

rape = assay: Test B pre/postemergence rape; format: in vivo, Brassica napus
Method in brief: as §1

soybean = assay: Test B pre/postemergence soybean; format: in vivo, Glycine max
Method in brief: as §1

sugar beet = assay: Test B pre/postemergence sugar beet; format: in vivo, Beta vulgaris
Method in brief: as §1

velvetleaf = assay: Test B pre/postemergence velvetleaf; format: in vivo, Abutilon theophrasti
Method in brief: as §1

wheat = assay: Test B pre/postemergence wheat; format: in vivo, Triticum aestivum
Method in brief: as §1

wild oat = assay: Test B pre/postemergence wild oat; format: in vivo, Avena fatua
Method in brief: as §1

purple nutsedge = assay: Test B pre/postemergence purple nutsedge; format: in vivo, Cyperus rotundus
Method in brief: as §1

[1] = Preemergence, Rate 62 g/ha, scale of 0 to 10 where 0 is no effect and 10 is complete control
[2] = Preemergence, Rate 250 g/ha, scale of 0 to 10 where 0 is no effect and 10 is complete control
[3] = Preemergence, Rate 500 g/ha, scale of 0 to 10 where 0 is no effect and 10 is complete control
[4] = Rate 62 g/ha, Postemergence, scale 0 to 10, 0 no effect, 10 complete control
[5] = Rate 125 g/ha, Postemergence, scale of 0 to 10 where 0 is no effect and 10 is complete control
[6] = Rate 125 g/ha, Preemergence, scale of 0 to 10 where 0 is no effect and 10 is complete control
[7] = Rate 250 g/ha, Postemergence, scale of 0 to 10 where 0 is no effect and 10 is complete control
[8] = Rate 500 g/ha, Postemergence, scale 0 to 10, 0 no effect, 10 complete control

## CC(=O)OCn1c(=O)on(C(=O)N(c2ccc(F)cc2)C(C)C)c1=O [Compound 292]
bedstraw; [1]
  Bedstraw plant response rating: 0
bedstraw; [2]
  Bedstraw plant response rating: 0
bedstraw; [3]
  Plant response rating, Bedstraw: 0
bedstraw; [4]
  Bedstraw plant response rating: 0
bedstraw; [5]
  Bedstraw plant response rating: 0
bedstraw; [6]
  Bedstraw plant response rating: 0
bedstraw; [7]
  Plant response rating, Bedstraw: 0
bedstraw; [8]
  Bedstraw plant response rating: 0
blackgrass; [1]
  Blackgrass plant response rating: 0
blackgrass; [2]
  Blackgrass plant response rating: 0
blackgrass; [3]
  Plant response rating, Blackgrass: 0
blackgrass; [4]
  Blackgrass plant response rating: 0
blackgrass; [5]
  Blackgrass plant response rating: 0
blackgrass; [6]
  Blackgrass plant response rating: 0
blackgrass; [7]
  Plant response rating, Blackgrass: 0
blackgrass; [8]
  Blackgrass plant response rating: 0
Surinam grass; [1]
  B. signalgrass plant response rating: 0
Surinam grass; [2]
  B. signalgrass plant response rating: 0
Surinam grass; [3]
  Plant response rating, B. signalgrass: 0
Surinam grass; [4]
  B. signalgrass plant response rating: 0
Surinam grass; [5]
  B. signalgrass plant response rating: 0
Surinam grass; [6]
  B. signalgrass plant response rating: 0
Surinam grass; [7]
  Plant response rating, B. signalgrass: 0
Surinam grass; [8]
  B. signalgrass plant response rating: 0
cocklebur; [1]
  Cocklebur plant response rating: 0
cocklebur; [2]
  Cocklebur plant response rating: 0
cocklebur; [3]
  Plant response rating, Cocklebur: 0
cocklebur; [4]
  Cocklebur plant response rating: 0
cocklebur; [5]
  Cocklebur plant response rating: 0
cocklebur; [6]
  Cocklebur plant response rating: 0
cocklebur; [7]
  Plant response rating, Cocklebur: 0
cocklebur; [8]
  Cocklebur plant response rating: 0
corn; [1]
  Corn plant response rating: 0
corn; [2]
  Corn plant response rating: 0
corn; [3]
  Plant response rating, Corn: 0
corn; [4]
  Corn plant response rating: 0
corn; [5]
  Corn plant response rating: 0
corn; [6]
  Corn plant response rating: 0
corn; [7]
  Plant response rating, Corn: 0
corn; [8]
  Corn plant response rating: 0
crabgrass; [1]
  Crabgrass plant response rating: 0
crabgrass; [2]
  Crabgrass plant response rating: 0
crabgrass; [3]
  Plant response rating, Crabgrass: 0
crabgrass; [4]
  Crabgrass plant response rating: 0
crabgrass; [5]
  Crabgrass plant response rating: 0
crabgrass; [6]
  Crabgrass plant response rating: 0
crabgrass; [7]
  Plant response rating, Crabgrass: 0
Giant foxtail; [1]
  Giant foxtail plant response rating: 0
Giant foxtail; [2]
  Giant foxtail plant response rating: 0
Giant foxtail; [3]
  Plant response rating, Giant foxtail: 0
Giant foxtail; [4]
  Giant foxtail plant response rating: 0
Giant foxtail; [5]
  Giant foxtail plant response rating: 0
Giant foxtail; [6]
  Giant foxtail plant response rating: 0
Giant foxtail; [7]
  Plant response rating, Giant foxtail: 0
morningglory; [1]
  Morningglory plant response rating: 0
morningglory; [2]
  Morningglory plant response rating: 0
morningglory; [3]
  Plant response rating, Morningglory: 0
morningglory; [4]
  Morningglory plant response rating: 0
morningglory; [5]
  Morningglory plant response rating: 1
morningglory; [6]
  Morningglory plant response rating: 0
morningglory; [7]
  Plant response rating, Morningglory: 2
pigweed; [1]
  Redroot pigweed plant response rating: 0
pigweed; [2]
  Redroot pigweed plant response rating: 0
pigweed; [3]
  Plant response rating, Redroot pigweed: 0
pigweed; [4]
  Redroot pigweed plant response rating: 0
pigweed; [5]
  Redroot pigweed plant response rating: 0
pigweed; [6]
  Redroot pigweed plant response rating: 0
pigweed; [7]
  Plant response rating, Redroot pigweed: 0
rape; [1]
  Rape plant response rating: 0
rape; [2]
  Rape plant response rating: 0
rape; [3]
  Plant response rating, Rape: 0
rape; [4]
  Rape plant response rating: 0
rape; [5]
  Rape plant response rating: 0
rape; [6]
  Rape plant response rating: 0
rape; [7]
  Plant response rating, Rape: 0
soybean; [1]
  Soybean plant response rating: 0
soybean; [2]
  Soybean plant response rating: 0
soybean; [3]
  Plant response rating, Soybean: 0
soybean; [4]
  Soybean plant response rating: 0
soybean; [5]
  Soybean plant response rating: 0
soybean; [6]
  Soybean plant response rating: 0
soybean; [7]
  Plant response rating, Soybean: 1
Sugar beet; [1]
  Sugarbeets plant response rating: 0
Sugar beet; [2]
  Sugarbeets plant response rating: 0
Sugar beet; [3]
  Plant response rating, Sugarbeets: 0
Sugar beet; [4]
  Sugarbeets plant response rating: 0
Sugar beet; [5]
  Sugarbeets plant response rating: 0
Sugar beet; [6]
  Sugarbeets plant response rating: 0
Sugar beet; [7]
  Plant response rating, Sugarbeets: 0
velvetleaf; [1]
  Velvetleaf plant response rating: 0
velvetleaf; [2]
  Velvetleaf plant response rating: 0
velvetleaf; [3]
  Plant response rating, Velvetleaf: 0
velvetleaf; [4]
  Velvetleaf plant response rating: 0
velvetleaf; [5]
  Velvetleaf plant response rating: 0
velvetleaf; [6]
  Velvetleaf plant response rating: 0
velvetleaf; [7]
  Plant response rating, Velvetleaf: 0
wheat; [1]
  Wheat plant response rating: 0
wheat; [2]
  Wheat plant response rating: 0
wheat; [3]
  Plant response rating, Wheat: 0
wheat; [4]
  Wheat plant response rating: 0
wheat; [5]
  Wheat plant response rating: 0
wheat; [6]
  Wheat plant response rating: 0
wheat; [7]
  Plant response rating, Wheat: 0
Wild oat; [1]
  Wild oats plant response rating: 0
Wild oat; [2]
  Wild oats plant response rating: 0
Wild oat; [3]
  Plant response rating, Wild oats: 0
Wild oat; [4]
  Wild oats plant response rating: 0
Wild oat; [5]
  Wild oats plant response rating: 0
Wild oat; [7]
  Plant response rating, Wild oats: 0
Purple nutsedge; [1]
  Nutsedge plant response rating: 0
Purple nutsedge; [2]
  Nutsedge plant response rating: 0
Purple nutsedge; [3]
  Plant response rating, Nutsedge: 0
Purple nutsedge; [4]
  Nutsedge plant response rating: 0
Purple nutsedge; [5]
  Nutsedge plant response rating: 0
Purple nutsedge; [6]
  Nutsedge plant response rating: 0
Purple nutsedge; [7]
  Plant response rating, Nutsedge: 0
